Patent US7381572B2, “Reagents and procedures for multi-label high-specificity labeling” (Rutgers, The State University of New Jersey, priority 2004, dated 2008)
Read-outs that look alike come from different tables or passages of the source. No end group written: not given here.

Legend:
tetracysteine peptide = conditions: initially non-fluorescent; Griffin, et al. Science (1998); cited from earlier work
[1] = Multicolor, multisite labeling, pairs of peptides: FlAsH detection; format: binding; conditions: pair of G1^0 with the named peptide; both probes present; 5, 10, 20 mM DTT
Experimental: (§1) Multicolor, multisite labeling was assessed in electrophoretic-mobility-shift assays. Pairs of tetracysteine-tagged peptides—one neutral tetracysteine-tagged peptide, and one negatively-charged tetracysteine-tagged peptide (the charge difference resulting in different electrophoretic mobilities on the gel, thus allowing the two tetracysteine-tagged peptides to be distinguished)—were analyzed. For each combination of probe and pair of tetracysteine-tagged peptides, three reactions were performed in parallel: one reaction at 5 mM DTT, one reaction at 10 mM DTT, and one reaction at 20 mM DTT. […] DTT (1 μl of 50 mM DTT for reactions at 5 mM DTT, 1 μl of 100 mM DTT for reactions at 10 mM DTT, and 1 μl of 200 mM DTT for reactions at 20 mM DTT) was added, and samples were incubated 30 min at 25° C.

[2] = Multicolor, multisite labeling, pairs of peptides: Cy5 detection; format: binding; conditions: pair of G1^0 with P3, P4, P5 or P6; both probes present; 5, 10, 20 mM DTT
Experimental: as §1

[3] = format: binding; conditions: excitation 488 nm, emission ≧680 nm
[4] = Tag-conjugate interaction found by the inventors: Cy3 derivatives; format: binding
[5] = Tag-conjugate interaction found by the inventors: Cy5 derivatives; format: binding
[6] = Tag-conjugate binding found by the inventors: Cy3 and Cy5 bis-propionamido-phenylarsine derivatives
[7] = Tag-conjugate interaction found by the inventors: FlAsH-EDT2; format: binding
[8] = Multicolor, multisite labeling of doubly-tetracysteine-tagged proteins (SARPs), crude lysate; format: binding, Escherichia coli; conditions: for FlAsH-Cy5 FRET within the resulting complex (SARP detection): excitation 488 nm, emission ≧680 nm; for co-labeling by FlAsH and Cy5-(SO3)2-(PAEDT)2: ~1 μM doubly-tagged protein
Experimental: Multicolor, multisite labeling of doubly-tetracysteine-tagged proteins—yielding self-assembled relay probes, SARPs—was assessed in electrophoretic-mobility-shift assays. DTT (1 μl of 125 mM solution) was added to 23 μl crude lysate containing doubly-tetracysteine-tagged protein (˜1 μM; Example 14.2), and samples were incubated 30 min at 25° C. Cy5-(SO3)2-(PAEDT)2 (Example 9.2; 0.5 μl of 1 mM solution in DMF) was added, and samples were incubated 20 min at 25° C. FlAsH (Griffin, et al. (2000) Methods Enzmol. 327, 565-578; 0.5 μl of 0.1 mM solution in DMF) was then added, and samples were further incubated 5 min at 25° C.

O=C(O)c1ccccc1-c1c2ccc(=O)c([As]3SCCS3)c-2oc2c([As]3SCCS3)c(O)ccc12 [FlAsH-EDT2, 4′,5′-bis (1,3,2-dithioarsolan-2-yl)fluorescein]
fluorescence on addition of a tetracysteine peptide to displace the EDT (tetracysteine peptide): develops bright fluorescence

Ac-EWNCCPPPCCN—CONH2 (Ac-EWNCCPPPCCN-NH2; cysteine pairing not given here) [P3]
FlAsH labeling as % of the level of labeling of G1^0 [1]: < 10% | labeling by Cy5-(SO3)2-(PAEDT)2 in a pair of peptides [2]: labeled

Ac-EWNCCPPPPCCN-AEAAAKEAAAKEAAAKEAAAKA-NCCGCCN—CONH2 [SARP-P4/G1-HL4X]
FlAsH-Cy5 FRET within the resulting complex (SARP detection) [3]: participated in FlAsH-Cy5 FRET

Ac-EWNCCPPPPCCN—CONH2 (Ac-EWNCCPPPPCCN-NH2; cysteine pairing not given here) [P4]
FlAsH labeling as % of the level of labeling of G1^0 [1]: < 10% | labeling by Cy5-(SO3)2-(PAEDT)2 in a pair of peptides [2]: labeled

Ac-EWNCCPPPPCCN—PPPPPPPPPPPP—NCCGCCN—CONH2 [SARP-P4/G1-PP12]
FlAsH-Cy5 FRET within the resulting complex (SARP detection) [3]: participated in FlAsH-Cy5 FRET

Ac-EWNCCPPPPCCN—PPPPPPPPP—NCCGCCN—CONH2 [SARP-P4/G1-PP9]
FlAsH-Cy5 FRET within the resulting complex (SARP detection) [3]: participated in FlAsH-Cy5 FRET

Ac-EWNCCPPPPPCCN—CONH2 (Ac-EWNCCPPPPPCCN-NH2; cysteine pairing not given here) [P5]
FlAsH labeling as % of the level of labeling of G1^0 [1]: < 10% | labeling by Cy5-(SO3)2-(PAEDT)2 in a pair of peptides [2]: labeled

Ac-EWNCCPPPPPPCCN—CONH2 (Ac-EWNCCPPPPPPCCN-NH2; cysteine pairing not given here) [P6]
FlAsH labeling as % of the level of labeling of G1^0 [1]: < 10% | labeling by Cy5-(SO3)2-(PAEDT)2 in a pair of peptides [2]: labeled

CCGPCC: tetracysteine peptide tag of the general form CCXXCC (target sequence)
interaction of tag with Cy3 derivatives of conjugates according to Formula (I) [4]: interact tightly | interaction of tag with Cy5 derivatives of conjugates according to Formula (I) [5]: not interact, or interact less tightly

CCPGPCC
binding of tag to Cy3 and Cy5 (bis-sulfonato) bis-propionamido-phenylarsine derivatives [6]: bind | interaction of tag with FlAsH-EDT2 [7]: not interact substantially

CCPPPCC (target sequence) [tetracysteine peptide tag of the form CC(P)nCC]
binding of tag to Cy3 and Cy5 (bis-sulfonato) bis-propionamido-phenylarsine derivatives [6]: bind | interaction of tag with FlAsH-EDT2 [7]: not interact substantially

CCPPPPCC (target sequence) [tetracysteine peptide tag of the form CC(P)nCC]
binding of tag to Cy3 and Cy5 (bis-sulfonato) bis-propionamido-phenylarsine derivatives [6]: bind | interaction of tag with FlAsH-EDT2 [7]: not interact substantially

CCPPPPPCC (target sequence) [tetracysteine peptide tag of the form CC(P)nCC]
binding of tag to Cy3 and Cy5 (bis-sulfonato) bis-propionamido-phenylarsine derivatives [6]: bind | interaction of tag with FlAsH-EDT2 [7]: not interact substantially

CCPPPPPPCC (target sequence) [tetracysteine peptide tag of the form CC(P)nCC]
binding of tag to Cy3 and Cy5 (bis-sulfonato) bis-propionamido-phenylarsine derivatives [6]: bind | interaction of tag with FlAsH-EDT2 [7]: not interact substantially

CGCGCGC (not fully specified (N-terminus, C-terminus); cysteine pairing not given here) [Ac—WNCGCGCGCN—CONH2, tag CGCGCGC; tested as the set A peptide that holds it]
interaction of tag with FlAsH-EDT2 [7]: do not interact substantially | binding of tag to Cy5 bis-sulfonato bis-propionamido-phenylarsine or Cy5 bis-propionamido-phenylarsine [5]: bind

CGPCCGPC [Ac—WNCGPCCGPCN—CONH2]
interaction of tag with FlAsH-EDT2 [7]: do not interact substantially | binding of tag to Cy5 bis-sulfonato bis-propionamido-phenylarsine or Cy5 bis-propionamido-phenylarsine [5]: bind

α-CCPPPCC—PPPPPPPPP—CCGCCN [α-SARP-P3/G1-PP9]
specificity of co-labeling and FRET-dependent detection (other proteins labeled) [8]: no other protein in the crude lysate was detectably labeled | FlAsH-Cy5 FRET within the resulting complex (SARP detection) [8]: participated in FlAsH-Cy5 FRET | co-labeling by FlAsH and Cy5-(SO3)2-(PAEDT)2 [8]: co-labeled

α-CCPPPPCC—PPPPPPPPP—CCGCCN [α-SARP-P4/G1-PP9]
specificity of co-labeling and FRET-dependent detection (other proteins labeled) [8]: no other protein in the crude lysate was detectably labeled | FlAsH-Cy5 FRET within the resulting complex (SARP detection) [8]: participated in FlAsH-Cy5 FRET | co-labeling by FlAsH and Cy5-(SO3)2-(PAEDT)2 [8]: co-labeled
